Data reported in the supplement of paper PMC10307832.

Assays:
Assay in all cases: relative viability (nuclei count vs DMSO), 5 days (fraction); higher = more cells survive
NCI-H322M = tested on: NCI-H322M
Outline: (§1)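 Lung cancer cell lines, seeded in 1536-well plates, were treated the following day by pin tool with a single drug or with five library-drug doses (not always all listed) in √10 steps on top of a fixed anchor-drug dose. Cells were fixed and nuclei stained in one step after 5 days, and nuclei were counted. Relative viability is the nuclei count for treated wells divided by that for vehicle wells, reported as medians of duplicate plates.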

ChaGo-K-1 = tested on: ChaGo-K-1
Outline: as §1

NCI-H838 = tested on: NCI-H838
Outline: as §1

NCI-H2342 = tested on: NCI-H2342
Outline: as §1

NCI-H358 = tested on: NCI-H358
Outline: as §1

LCLC-97TM1 = tested on: LCLC-97TM1
Outline: as §1

NCI-H1651 = tested on: NCI-H1651
Outline: as §1

LC-2-ad = tested on: LC-2-ad
Outline: as §1

HCC-78 = tested on: HCC-78
Outline: as §1

PC-3 [JPC-3] = tested on: PC-3 [JPC-3]
Outline: as §1

HCC-15 = tested on: HCC-15
Outline: as §1

NCI-H2087 = tested on: NCI-H2087
Outline: as §1

NCI-H1944 = tested on: NCI-H1944
Outline: as §1

NCI-H1666 = tested on: NCI-H1666
Outline: as §1

LXF-289 = tested on: LXF-289
Outline: as §1

BEN = tested on: BEN
Outline: as §1

H3255 = tested on: H3255
Outline: as §1

LU99A = tested on: LU99A
Outline: as §1

NCI-H650 = tested on: NCI-H650
Outline: as §1

LK-2 = tested on: LK-2
Outline: as §1

NCI-H596 = tested on: NCI-H596
Outline: as §1

## CC(C)Oc1cc(Nc2nc(N[C@@H](C)c3ccc(F)cn3)ncc2Cl)n[nH]1 [AZ23] + NC(=O)Nc1cc(-c2cccc(F)c2)sc1C(=O)N[C@H]1CCCNC1 [AZD7762] (partner 0.2 µM)
NCI-H322M; first compound 0.01 µM
  relative viability: 0.468
NCI-H322M; first compound 0.03162 µM
  relative viability: 0.527
NCI-H322M; first compound 0.3162 µM
  relative viability: 0.614
ChaGo-K-1; first compound 0.01 µM
  relative viability: 0.93
ChaGo-K-1; first compound 0.03162 µM
  relative viability: 0.811
ChaGo-K-1; first compound 0.3162 µM
  relative viability: 0.959
NCI-H838; first compound 0.01 µM
  relative viability: 0.934
NCI-H838; first compound 0.03162 µM
  relative viability: 1.05
NCI-H838; first compound 0.3162 µM
  relative viability: 0.991
NCI-H2342; first compound 0.01 µM
  relative viability: 0.442
NCI-H2342; first compound 0.03162 µM
  relative viability: 0.569
NCI-H2342; first compound 0.3162 µM
  relative viability: 0.483
NCI-H358; first compound 0.01 µM
  relative viability: 0.447
NCI-H358; first compound 0.03162 µM
  relative viability: 0.653
NCI-H358; first compound 0.3162 µM
  relative viability: 0.514
LCLC-97TM1; first compound 0.01 µM
  relative viability: 0.239
LCLC-97TM1; first compound 0.03162 µM
  relative viability: 0.327
LCLC-97TM1; first compound 0.3162 µM
  relative viability: 0.175
NCI-H1651; first compound 0.01 µM
  relative viability: 0.376
NCI-H1651; first compound 0.03162 µM
  relative viability: 0.541
NCI-H1651; first compound 0.3162 µM
  relative viability: 0.623
LC-2-ad; first compound 0.01 µM
  relative viability: 1.04
LC-2-ad; first compound 0.03162 µM
  relative viability: 1.05
LC-2-ad; first compound 0.3162 µM
  relative viability: 1.02
HCC-78; first compound 0.01 µM
  relative viability: 0.516
HCC-78; first compound 0.03162 µM
  relative viability: 0.697
HCC-78; first compound 0.3162 µM
  relative viability: 0.681
PC-3 [JPC-3]; first compound 0.01 µM
  relative viability: 0.663
PC-3 [JPC-3]; first compound 0.03162 µM
  relative viability: 0.837
PC-3 [JPC-3]; first compound 0.3162 µM
  relative viability: 0.77
HCC-15; first compound 0.01 µM
  relative viability: 1.43
HCC-15; first compound 0.03162 µM
  relative viability: 1.34
HCC-15; first compound 0.3162 µM
  relative viability: 1.35
NCI-H2087; first compound 0.01 µM
  relative viability: 1.6
NCI-H2087; first compound 0.03162 µM
  relative viability: 1.41
NCI-H2087; first compound 0.3162 µM
  relative viability: 1.32
NCI-H1944; first compound 0.01 µM
  relative viability: 0.413
NCI-H1944; first compound 0.03162 µM
  relative viability: 0.532
NCI-H1944; first compound 0.3162 µM
  relative viability: 0.646
NCI-H1666; first compound 0.01 µM
  relative viability: 0.91
NCI-H1666; first compound 0.03162 µM
  relative viability: 0.772
NCI-H1666; first compound 0.3162 µM
  relative viability: 0.977
LXF-289; first compound 0.01 µM
  relative viability: 1.14
LXF-289; first compound 0.03162 µM
  relative viability: 1.24
LXF-289; first compound 0.3162 µM
  relative viability: 1.27
BEN; first compound 0.01 µM
  relative viability: 0.659
BEN; first compound 0.03162 µM
  relative viability: 0.759
BEN; first compound 0.3162 µM
  relative viability: 0.746
H3255; first compound 0.01 µM
  relative viability: 0.828
H3255; first compound 0.03162 µM
  relative viability: 0.958
H3255; first compound 0.3162 µM
  relative viability: 0.931
LU99A; first compound 0.01 µM
  relative viability: 0.269
LU99A; first compound 0.03162 µM
  relative viability: 0.444
LU99A; first compound 0.3162 µM
  relative viability: 0.507
NCI-H650; first compound 0.01 µM
  relative viability: 0.954
NCI-H650; first compound 0.03162 µM
  relative viability: 1.14
NCI-H650; first compound 0.3162 µM
  relative viability: 1.12
LK-2; first compound 0.03162 µM
  relative viability: 0.472
LK-2; first compound 0.3162 µM
  relative viability: 0.411
NCI-H596; first compound 0.01 µM
  relative viability: 1.02
NCI-H596; first compound 0.03162 µM
  relative viability: 1.04
NCI-H596; first compound 0.3162 µM
  relative viability: 1.03
